Data set [1] deals with CD8^+ T cells in human PBMCs (HLA-A201^+). Kind of data set: MHC class I tetramer assay. In kind it is cell-based. The conditions noted are these: human PBMC (HLA-A201^+), 30 nM tetramer, 20 minutes; FIG. 3. As for the experimental part:
Human PBMCs were treated with MHC class I tetramers binding with Peptide 1 (SEQ ID NO: 1) or Peptide 12 (SEQ ID NO: 12) for 20 minutes, co-stained with anti-CD8 antibodies, and then analyzed with a flow cytometer. Results are presented as mean with error bars representing standard error (n=3). *p<0.05.
MHC class I tetramer assay. […] Then, 50 µL of the obtained folded monomer were mixed with the equivalent of 2.1 μL of a 0.2 mg/mL streptavidin-fluorophore and incubated in the dark at 4° C. for at least 1 hour to tetramerized the monomer. The tetramer was diluted to 30 nM in FACS buffer (PBS with 1% v/v BSA and 0.1% v/v NaN3) for staining of human T cells.
Next, around 1-2×10^5 human peripheral blood mononuclear cells (PBMCs, HLA-A201^+) ([…] Technologies Inc, Vancouver, British Columbia, Canada) in FACS buffer were seeded onto a 96-well microplate. The cells were centrifuged at 700×g for 3 minutes, and the supernatant was removed. The cells were resuspended with 40 μL of the diluted tetramer and incubated in the dark at room temperature (RT) for 20 minutes. The cells were washed once in cold FACS buffer and centrifuged at 700×g for 3 minutes. […] The cells were washed twice in cold FACS buffer, resuspended in FACS buffer, and analyzed in a flow cytometer (BD LSRFortessa™X20, Franklin Lakes, N.J., U.S.).

Data set [2] relates to CD4^+ T cells in human PBMCs (HLA-A201^+). As to the kind of experiment: Intracellular cytokine staining and multiparameter flow cytometry. The conditions noted are these: Day 12. In kind it is cell-based. As for the experimental part:
Human PBMCs were treated with Peptide 1 (SEQ ID NO: 1) at the concentrations of 0.4, 2, 10, 50, 250 nM for 12 days and then subject to intracellular cytokine staining and multiparameter flow cytometry.
Human PBMCs were treated with Peptide 12 (SEQ ID NO: 12) at the concentrations of 0.4, 2, 10, 50, 250 nM for 12 days and then subject to intracellular cytokine staining and multiparameter flow cytometry.
Intracellular cytokine staining and multiparameter flow cytometry. Around 1-2×10^5 human PBMCs (HLA-A201^+) ([…] Technologies Inc, Vancouver, British Columbia, Canada) were seeded onto 96-well microplate in X-VIVO 15 medium. […] The culture medium was refreshed every 5 days, and on the 12th day after treatment with the peptides, the cells were collected and stained with anti-CD4-PerCP-Cy5.5 conjugated, IFN-γ-FITC chrome conjugated, and IL4-PE chrome conjugated antibodies according to the manufacturer's instruction. After that, the cells were washed twice in cold FACS buffer, resuspended in FACS buffer, and analyzed in a flow cytometer ((BD LSRFortessa™X20, Franklin Lakes, N.J., U.S.).
In general terms: In flow cytometry, cells or beads pass a laser one at a time.

Data set [3] can be described thus: Immunization of mice, total IgG ELISA. The conditions noted are these: for total IgG antibodies: BALB/c mice, ***p<0.001. In kind it is in vivo, BALB/c mice. The procedure: Immunization of mice. To determine the immunogenicity of the antigen peptides of the present invention, Peptide 1 (SEQ ID NO: 1) of the present invention were used as an example for mice model. Ten (10) female BALB/c mice (7-9 weeks old) supplied by Envigo (Indianapolis, Ind., USA) were intramuscularly injected with 3 shots of 45 μg Peptide 1 (SEQ ID NO: 1) at 2 weeks apart (on Days 0, 14, and 28). Serum was collected before the day of each immunization (on Days−1, 13, and 27). Terminal blood collection was performed on Day 41. Isolated serum was stored at −80° C. until serological analysis. Serum samples collected one day prior to the first injection (on Day−1, pre-dose group) and serum samples collected 2 weeks after the third injection (on Day 41, post-dose group) were used for anti-spike IgG ELISA assay.
Total IgG ELISA. IgG (Total) Mouse Uncoated ELISA kit (Cat. No. 88-50400, Thermo Fisher Scientific, MA, USA) was used for total IgG ELISA according to manufacturer's instruction. Briefly, Nunc™ MaxiSorp™ 9018 ELISA plate was coated with 100 μL/well of capture antibody in Coating Buffer and incubated overnight at 4° C. The plate was washed twice with 400 μL/well Wash Buffer. After the wells were blocked with 250 μL of Blocking Buffer and incubated at room temperature for 2 hours, the plate was washed twice. The standards were serially diluted with Assay Buffer A at 2-fold to make the standard curve. Then, 100 μL/well of Assay Buffer A were added to the blank wells, and 90 μL/well of Assay Buffer A were added to the sample wells. Serum samples were diluted at least 10,000-fold in Assay Buffer A, and then 10 μL/well of the prediluted serum samples were added to the appropriate wells. Fifty (50) μL/well of diluted Detection Antibody were added to all wells. Then, the plate was covered and incubated at room temperature for 2 hours, and washed four times after the incubation. […] After that, 100 μL of Stop Solution were added to each well, and the plate was read at OD 450 nm with a microplate reader. […]
For orientation: An ELISA detects its analyte on a solid surface through an enzyme-linked reagent.

Data set [4] has as its system Human SARS-CoV-2 Spike (trimer). Kind of data set: Immunization of mice, anti-spike IgG ELISA. In kind it is in vivo. Conditions: Day 41 vs Day -1, BALB/c mice.
The next data set addresses HLA-A201 (Homo sapiens, UniProt P04439, D140Y/D185E/D98H/E176V/E277Q/G131W/G231S/I119V/I121R/I166T/I218V/N151K/N90K/P208A/P217A/Q86G/Q94H/R138H/R169H). As to the kind of experiment: MHC-peptide binding assay (MHC class I refolding assay, easYmer).

Ends that are not written are not given here.

The values below come from US20220370604A1, “PEPTIDE VACCINE FOR VIRUS INFECTION” (Vacino Biotech Co., Ltd., priority 2021, published 2022).

KLNSGDSKV [Peptide 1]: in data set [1], the “antigen specific cytotoxic T cells (CTLs) detected by MHC class I tetramer staining” value was “can be detected”. The “IL-4 secretion by T helper cells (CD4^+ cells)” value in data set [2] (50 nM peptide) is recorded as “higher level”. Also, the “IFN-γ secretion by T helper cells (CD4^+ cells)” value in data set [2] (250 nM peptide) is “higher level”. The “total IgG antibodies” value was “induced total IgG antibodies” in data set [3] (intramuscular, 45 μg, Days 0, 14, 28, FIG. 5A) and “induced total IgG antibodies” in data set [3] (oral, 200 μg formulated with 1% (v/v) PLCL-PEG-PLCL, Day 41 vs Day -1, FIG. 7A). In addition, the “total IgG, course over administrations” value in data set [3] (intramuscular, 45 μg, sera on Days -1, 13, 27, 41, FIG. 5A) is “reaches to the plateau after second administration”. In addition, the “anti-spike IgG antibodies” value in data set [4] (intramuscular, 45 μg, FIG. 5B, ***p<0.001) is listed as “induced anti-spike IgG antibodies”; in data set [4] (oral, 200 μg formulated with 1% (v/v) PLCL-PEG-PLCL, FIG. 7B, **p<0.01) it was “induced anti-spike IgG antibodies”. Further, the “binding affinity for HLA-A201, times as high as that of CMVpp65495-503 (positive control)” value on HLA-A201 (8.9 nM peptide, FIG. 1, mean fluorescence intensity of peptide-HLA complex) stood at 1.8 times. For the same sequence, the “binding affinity for HLA-A201 compared with CMVpp65495-503 (positive control)” value at HLA-A201 (concentration of 3 nM and 8.9 nM, FIG. 1) is “higher binding affinity for HLA-A201 than CMVpp65495-503”.

KLNSGLSKV [Peptide 12]: the “antigen specific cytotoxic T cells (CTLs) detected by MHC class I tetramer staining” value in data set [1] was “can be detected”.
